# Experimental data from patent US10995068B2, “Synthetic sphingolipid-like molecules, drugs, methods of their synthesis and methods of treatment” (The Regents of the University of California, priority 2015, dated 2021).
# How the values were obtained:
# [1] = test system: PC3 prostate cancer cells; experiment: Cell viability by vital dye exclusion and flow cytometry in PC3; type: cell-based, human; conditions: vital dye exclusion (DAPI) and flow cytometry, 72 h
# Protocol: Thus, to determine whether analogues in accordance with embodiments of the invention are cytotoxic, studies were conducted using vital dye exclusion and flow cytometry (Table 2).
# (§1) Viability assays: Cell Titer Glo assays (Cell Titer Glo Luminescent Cell Viability Assay kit, cat #G7571, Promega Corporation) are performed in clear bottom 96-well black cell culture plates (cat #655090, Greiner Bio-One, NC, USA). After plating at 1,000 cells/well in volume of 100 μl, cells are left undisturbed for at least 24 h before drug addition. After 72 h, cells are prepared for analysis by adding 10 μl of 0.1% Triton-X100 in PBS with shaking for 1 min at room temperature (RT). Cell Titer-Glo cell lysis reagent (20 μl) is then added followed by 1 min of shaking and a 10 min incubation in the dark at RT. Luminescence is detected using an IVIS imaging system (IVIS Lumina II, Perkin Elmer, USA). […] IC50s are determined using GraphPad Prism (GraphPad Software, Inc, La Jolla, Calif.). SupB-15 viability was determined by flow cytometry. Cell Titer Glo assays were performed with the other cell lines.
# [2] = test system: PC3 prostate cancer cells; experiment: Cell Titer Glo proliferation assay in PC3; type: cell-based, human; conditions: Cell Titer Glo, 72 h; Mean ± SEM, n ≥ 3; read-out: IC50 values in prostate cancer cell lines, PC3
# Protocol: (§2) Previously presented compounds 1-4 (FIG. 23), compounds 5-8 (FIG. 28), and control compound FTY720 (FIG. 2) were used to treat the well-established PC3 and DU145 prostate cancer lines (FIG. 29 and Table 1). A Cell Titer Glo assay was performed to measure proliferation of the cancer lines.
# (§3) Cell culture studies: Sup-B15 cells are maintained at 2-3 million/mL in RPMI 1640 (Mediatech) supplemented with 10% fetal calf serum (FCS, Sigma-Aldrich), 10 mM Hepes (Mediatech), 55 μM β-mercaptoethanol (Sigma-Aldrich), 2 mM L-glutamine (Mediatech), and antibiotics. All adherent cells are maintained at 70-80% confluence. Cell are cultured in the following media: PC3 & A549, Ham's F12K (Corning Cell Gro) supplemented with 10% FCS and antibiotics; DU145 cells, MEM (Corning Cell Gro) supplemented with 10% FCS, 1 mM sodium pyruvate (Mediatech), and antibiotics; SW620 & MDA-MB-231, DMEM (Corning Cell Gro) with 10% FCS, 1 mM sodium pyruvate (Mediatech), and antibiotics; Panc-1 cells, DMEM (Corning Cell Gro) supplemented with 10% FCS and antibiotics. All of the above cell lines are available from the ATCC.
# as §1
# [3] = test system: Lung (A-549) cancer cell line; experiment: IC50 in cancer cell lines (Table 3), lung; type: cell-based, human; conditions: Mean ± SEM, n ≥ 3
# Protocol: (§4) Having observed a suitable potency of some embodiments of the invention, including, at least with compounds 3-6, 14 in prostate cancer cell lines, other cancer cell lines were tested with these compounds. […] Compounds that were active in prostate cancer cell lines also killed BCR-Abl-positive leukemia cells with similar potency to FTY720.
# as §3, §1
# Leukemia (SupB-15) cells = experiment: IC50 in cancer cell lines (Table 3), leukemia; type: cell-based, human; conditions: flow cytometry; Mean ± SEM, n ≥ 3
# Protocol: as §4, §3, §1
# [4] = test system: Pancreas (PANC-1) cancer cell line; experiment: IC50 in cancer cell lines (Table 3), pancreas; type: cell-based, human; conditions: Mean ± SEM, n ≥ 3
# Protocol: as §4, §3, §1
# S1P receptor 3 = target: T1, S1P receptor 3 (Homo sapiens, UniProt Q99500); experiment: S1P receptor activation in CHO cells, S1P3; type: cell-based; conditions: CHO cells over-expressing human S1P3
# T1 construct: expressed in transfected cells
# T1 sequence (Q99500 whole entry): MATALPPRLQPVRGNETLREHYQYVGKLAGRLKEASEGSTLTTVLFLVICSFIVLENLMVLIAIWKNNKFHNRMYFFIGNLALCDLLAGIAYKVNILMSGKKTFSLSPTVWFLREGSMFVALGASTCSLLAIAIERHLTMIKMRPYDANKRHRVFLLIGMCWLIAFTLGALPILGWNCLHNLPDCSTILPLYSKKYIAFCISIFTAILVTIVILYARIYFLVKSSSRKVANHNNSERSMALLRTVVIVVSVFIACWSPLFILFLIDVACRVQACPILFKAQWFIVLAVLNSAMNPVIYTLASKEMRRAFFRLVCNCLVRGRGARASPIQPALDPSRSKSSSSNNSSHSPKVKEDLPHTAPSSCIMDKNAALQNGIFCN
# Description: (§5) Phosphorylation may have effects on S1P receptor activity that could cause bradycardia. Bradycardia, the dose-limiting toxicity that prevents the use of FTY720 in cancer patients, stems from FTY720-P's actions on S1P receptors 1 and 3. (Camm, J., et al. (2014) Am. Heart J. 168, 632-644; Cohen, J. A., Chun, J. (2011) Ann. Neurol. 69, 759-777; Sanna, M. G., et al. (2004) J. Biol. Chem. 279, 13839-13848; the disclosures of which are incorporated herein by reference). Phosphorylation by sphingosine kinase may make compounds competent to activate S1P receptors. FTY720, for example, when phosphorylated is known to activate S1P receptors 1 and 3. Because compound 5 could be phosphorylated, the activity of compound 5 and its phosphate 5-P (FIG. 28) on S1P receptors was evaluated (FIG. 32).
# (§6) 51P1-5 activation: Chinese hamster ovary (CHO) cells stably over-expressing the different human 51P receptor subtypes are used. S1P1, S1P4 and S1P5 overexpressing CHO cells are cultured in medium containing alpha-MEM supplemented with 10% FBS, 50 μg/ml gentamycin and 0.5 mg/ml G418. S1P2 and S1P3 overexpressing CHO cells are cultured in RPMI containing 10% FBS, 50 μg/ml gentamycin and 0.5 mg/ml G418. Prior to stimulation, cells are rendered serum-free for 24 h. Stimulation is carried out for 10 min in serum-free DMEM containing 0.1 mg/ml of fatty-acid free BSA in the absence or presence of the various compounds or 51P. Protein lysates are prepared using a buffer containing (50 mM Tris pH 7.4, 150 mM NaCl, 10% glycerol, 1% Triton X-100, 2 mM EDTA, 2 mM EGTA, 40 mM β-glycerophosphate, 50 mM sodium fluoride, 10 mM sodium pyrophosphate, 2 mM dithiothreitol, 0.2 mM sodium orthovanadate). Cells are homogenized by one 5 sec burst in a MSE Ultrasonic Disintegrator, centrifuged and taken for protein determination. Equal amounts of protein are separated by SDS-PAGE (10% polyacrylamide gel), transferred to nitrocellulose membranes and subjected to Western blot analysis. Bands were stained using IRDye® secondary antibodies and visualized by the LICOR Odyssey® Fc Imaging system. Antibodies against phospho-Thr202/Tyr204-p42/p44-MAPK and phospho-Ser PKC substrate are from Cell Signaling, Frankfurt am Main, Germany. Polyclonal antisera against total p42 and total p44 were generated and characterized as previously described. (Huwiler, A.; Pfeilschifter, J. Br. J. Pharmacol. 1994, 113, 1455-1463; disclosure of which is incorporated herein by reference).
# S1P receptor 2 = target: T2, S1P receptor 2 (Homo sapiens, UniProt O95136); experiment: S1P receptor activation in CHO cells, S1P2; type: cell-based; conditions: CHO cells over-expressing human S1P2
# T2 construct: expressed in transfected cells
# T2 sequence (O95136 whole entry): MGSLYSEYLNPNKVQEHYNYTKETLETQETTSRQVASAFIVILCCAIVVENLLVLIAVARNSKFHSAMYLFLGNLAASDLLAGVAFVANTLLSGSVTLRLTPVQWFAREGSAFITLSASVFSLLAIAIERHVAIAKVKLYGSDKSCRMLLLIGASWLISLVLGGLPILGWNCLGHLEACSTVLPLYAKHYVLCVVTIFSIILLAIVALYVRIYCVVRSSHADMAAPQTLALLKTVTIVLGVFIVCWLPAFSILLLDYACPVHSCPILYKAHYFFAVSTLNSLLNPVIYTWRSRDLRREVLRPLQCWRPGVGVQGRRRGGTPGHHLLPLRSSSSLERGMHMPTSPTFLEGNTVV
# Description: as §5, §6
# S1P receptor 4 = target: T3, S1P receptor 4 (Homo sapiens, UniProt O95977); experiment: S1P receptor activation in CHO cells, S1P4; type: cell-based; conditions: CHO cells over-expressing human S1P4
# T3 construct: expressed in transfected cells
# T3 sequence (O95977 1-384): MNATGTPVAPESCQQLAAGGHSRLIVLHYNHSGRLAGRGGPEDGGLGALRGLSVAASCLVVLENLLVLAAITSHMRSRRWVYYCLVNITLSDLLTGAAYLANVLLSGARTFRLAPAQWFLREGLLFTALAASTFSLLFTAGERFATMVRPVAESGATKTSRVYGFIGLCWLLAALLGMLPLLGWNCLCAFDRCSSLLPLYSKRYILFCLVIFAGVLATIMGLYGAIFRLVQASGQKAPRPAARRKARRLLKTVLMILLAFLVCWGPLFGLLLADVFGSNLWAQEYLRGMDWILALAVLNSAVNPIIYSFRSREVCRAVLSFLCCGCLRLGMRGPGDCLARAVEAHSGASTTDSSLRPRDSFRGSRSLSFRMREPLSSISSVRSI
# Description: as §5, §6
# [5] = test system: Breast (MDA-MB-231) cancer cell line; experiment: IC50 in cancer cell lines (Table 3), breast; type: cell-based, human; conditions: Mean ± SEM, n ≥ 3
# Protocol: as §4, §3, §1
# [6] = test system: DU145 prostate cancer cells; experiment: Cell Titer Glo proliferation assay in DU145; type: cell-based, human; conditions: 72 h, Mean ± SEM, n ≥ 3, read-out: IC50 values in prostate cancer cell lines, DU145
# Protocol: as §2, §3, §1
# [7] = test system: Colon (SW-620) cancer cell line; experiment: IC50 in cancer cell lines (Table 3), colon; type: cell-based, human; conditions: Mean ± SEM, n ≥ 3
# Protocol: as §4, §3, §1
# S1P receptor 1 = target: T4, S1P receptor 1 (Homo sapiens, UniProt P21453); experiment: S1P receptor activation in CHO cells, S1P1; type: cell-based; conditions: CHO cells over-expressing human S1P1, 10 min stimulation, Western blot
# T4 construct: expressed in transfected cells
# T4 sequence (P21453 whole entry): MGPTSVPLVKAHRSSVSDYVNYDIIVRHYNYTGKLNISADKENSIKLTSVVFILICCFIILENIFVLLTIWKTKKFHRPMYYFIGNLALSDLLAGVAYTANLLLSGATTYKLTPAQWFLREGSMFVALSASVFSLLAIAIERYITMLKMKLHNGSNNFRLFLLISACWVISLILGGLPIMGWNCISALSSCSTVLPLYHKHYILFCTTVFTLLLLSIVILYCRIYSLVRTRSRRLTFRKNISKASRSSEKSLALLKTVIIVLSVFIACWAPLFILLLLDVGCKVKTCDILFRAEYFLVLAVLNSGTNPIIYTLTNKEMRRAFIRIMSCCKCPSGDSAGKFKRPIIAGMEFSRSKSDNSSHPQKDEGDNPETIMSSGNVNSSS
# Description: as §5, §6
# S1P receptor 5 = target: T5, S1P receptor 5 (Homo sapiens, UniProt Q9H228); experiment: S1P receptor activation in CHO cells, S1P5; type: cell-based; conditions: CHO cells over-expressing human S1P5
# T5 construct: expressed in transfected cells
# T5 sequence (Q9H228 whole entry): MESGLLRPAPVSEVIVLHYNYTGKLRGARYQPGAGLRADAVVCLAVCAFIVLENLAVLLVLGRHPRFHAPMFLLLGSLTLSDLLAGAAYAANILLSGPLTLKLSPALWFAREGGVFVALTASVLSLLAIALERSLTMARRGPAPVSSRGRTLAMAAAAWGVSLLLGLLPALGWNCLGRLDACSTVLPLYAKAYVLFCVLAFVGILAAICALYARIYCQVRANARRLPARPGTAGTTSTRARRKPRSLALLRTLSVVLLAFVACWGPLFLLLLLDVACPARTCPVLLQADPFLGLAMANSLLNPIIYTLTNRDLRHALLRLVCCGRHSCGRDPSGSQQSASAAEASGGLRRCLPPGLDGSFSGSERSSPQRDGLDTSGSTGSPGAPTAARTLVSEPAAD
# Description: as §5, §6
# [8] = test system: subcutaneous SW620 xenograft tumors; experiment: SW620 xenograft study in nude mice; type: in vivo; conditions: 20 mg/kg daily by intraperitoneal injection
# Protocol: In even another exemplary study, anti-neoplasm potency of the constrained pyrrolidine sphingolipid-like compounds in xenograft tumor animal studies. Nude mice bearing subcutaneous SW620 xenograft tumors were treated daily with 10 mg/kg FTY720 or 20 mg/kg of compounds 5 or 15 by intraperitoneal injection. […] Furthermore, these compounds retain many of the beneficial abilities of FTY720, such as, for example water solubility, oral bioavailability, and anti-tumor activity but no longer trigger bradycardia. Thus, these compounds are ideal for medicaments and treatments for neoplasms.
# SW620 and SW480 xenograft studies: For SW620 xenograft studies, two and one half million luciferase-expressing SW620 colon cancer cells suspended in PBS with 2% FCS are injected subcutaneously in the flank of 7 week old male nude mice (Charles Rivers Labs, Crl:NU(NCr)-Foxn1nu). When tumors reached 100 mm^3 in volume, mice are assigned to groups with matched average tumor volumes and animal weights. Four groups containing 7 mice are treated intraperitoneally with either vehicle (0.9% saline), 10 mg/kg FTY720, or 20 mg/kg compound 5 or compound 15. Tumor length and width are measured with calipers at 7 and 11 days of treatment. Tumor volume is calculated using the formula volume (mm^3)=length [mm]×(width [mm])^2×0.52. The average fold change in the volume of each tumor over time is shown.
# [9] = test system: K-RasG12D expressing cells; experiment: Macropinosome fusion with lysosomes; type: cell-based; conditions: dextran
# Description: In cells with activated Ras, macropinocytosis might also confer resistance to nutrient transporter down-regulation. However, PI(3,5)P2 is also required for macropinosome degradation. […] Macropinosomes that fail to fuse with lysosomes would not be able to supply nutrients, such as amino acids. Thus, by disrupting PIKfyve localization, sphingolipid-like compounds limit access to lysosome-derived nutrients at the same time it down-regulates transporters for amino acids and glucose.
# (§7) Light Microscopy: Brightfield and epifluorescence microscopy were conducted using a Nikon TE2000-S fluorescence microscope; confocal microscopy was performed on a Zeiss LSM780 confocal microscope or Nikon Eclipse Ti spinning disk confocal microscope. […] Co-localization was determined using JACoP plugin in ImageJ software. Macropinocytosis was measured after 16 h incubation in serum-free DMEM. p53−/−; LSL-K-RasG12D MEFs before (LSL) or after (KRasG12D) introduction of Cre were serum starved for 16 h and then treated with macropinocytosis inhibitor 5-(N-ethyl-N-isopropyl) amiloride (EIPA, 75 μM) for 1 h or SH-BC-893 for 6 h. Oregon Green dextran (Life Technologies, cat #D7173) (1 mg/mL) and Lysotracker Red (Life Technologies, cat #L-7525) (1:2,000 dilution) were added for 30 min and live cells were evaluated on the spinning disc confocal microscope. […]
# [10] = test system: fusion of LC3-positive autophagosomes with LAMP1-positive lysosomes; experiment: Autophagosome-lysosome fusion in chloroquine-treated cells; type: cell-based
# Protocol: It is known in the art that cells adapt to nutrient stress by increasing autophagic flux. However, autophagosome-lysosome fusion reactions depend upon […] release via TRPML1 channels that are activated by PI(3,5)P2. […] Chloroquine (CQ) is molecule that stabilizes the transient autophagosomes. Cells were treated with CG to stabilize autophagolysosomes and subsequently treated with FTY720, SH-BC-893, or YM201636. […] Phosphatidylinositol 5-Phosphate (PI(5)P) is essential for autophagosome biogenesis upon glucose depletion. PI(5)P is produced by dephosphorylating PI(3,5)P2, and thus PI(5)P might also be mis-localized in SH-BC-893-treated cells, and thus also contributing to the disruption of autophagosome formation. […] Thus, SH-BC-893 inhibited both autophagosome formation and degradation. As a control, Vac14 over-expression limited vacuolation (FIGS. 55F, 61F, and 62B) and rescued autophagic flux in SH-BC-893-treated cells (FIGS. 61A, 61B, 61D and 61E).
# as §7
SMILES,IC50 [1] [µM],IC50 [2] [µM],IC50 [3] [µM],IC50 (Leukemia (SupB-15) cells) [µM],IC50 [4] [µM],activation of S1P receptor 3 (S1P receptor 3),activation of S1P receptor 2 (S1P receptor 2),activation of S1P receptor 4 (S1P receptor 4),IC50 [5] [µM],IC50 [6] [µM],IC50 [7] [nM],activation of S1P receptor 1 (S1P receptor 1),activation of S1P receptor 5 (S1P receptor 5),tumor growth of SW620 xenografts [8],macropinosome fusion with lysosomes [9],fusion of LC3-positive autophagosomes with LAMP1-positive lysosomes [10]
CCCCCCCCc1ccc([C@@H]2CCN[C@H]2COC)cc1.Cl [Compound 14],4.6 ± 0.4,1.9 ± 0.3,7.8 ± 1.8,7.5 ± 0.4,4.8 ± 0.6,not able to activate,not able to activate,not able to activate,4,5.6 ± 0.1,2700 ± 200,not able to activate,not able to activate,–,–,–
CCCCCCCCc1ccc([C@H]2CCN[C@@H]2COC)cc1.Cl [Compound 15],–,6.3 ± 0.3,–,–,–,–,–,–,–,5.9 ± 0.3,–,–,–,inhibited tumor growth,–,–
"Nc1ccc(C(=O)Nc2cccc(-c3nc(N4CCOCC4)c4oc5ncccc5c4n3)c2)cn1 [YM201636, reference compound]",–,–,–,–,–,–,–,–,–,–,–,–,–,–,dramatically reduced macropinosome fusion with lysosomes,reduced fusion
